Source: patent US10118935B2, “Melampomagnolide B dimers” (priority 2014, dated 2018)

Columns and labels:
[1] = system: SF-268; test: NCI 60 cell line five dose, CNS Cancer
[2] = system: OVCAR-4; test: NCI 60 cell line five dose, Ovarian Cancer
[3] = system: HCT-116; test: NCI 60 cell line five dose, Colon Cancer
[4] = system: HOP-62; test: NCI 60 cell line five dose, Non-Small Cell Lung Cancer; assay type: cell-based, human
[5] = system: SF-539; test: NCI 60 cell line five dose, CNS Cancer
[6] = system: MDA-MB-231/ATCC; test: NCI 60 cell line five dose, Breast Cancer
[7] = system: NCI-H226; test: NCI 60 cell line five dose, Non-Small Cell Lung Cancer
[8] = system: M9ENL AML cell lines; conditions: read-out: LC50; M9ENL AML cell lines; after 24 hours of drug exposure
[9] = system: EKVX; test: NCI 60 cell line five dose, Non-Small Cell Lung Cancer; assay type: cell-based, human
[10] = system: DU-145; test: NCI 60 cell line five dose, Prostate Cancer
[11] = system: SN12C; test: NCI 60 cell line five dose, Renal Cancer
[12] = system: NCI/ADR-RES; test: NCI 60 cell line five dose, Ovarian Cancer; conditions: NCI/ADR-
[13] = system: SK-MEL-5; test: NCI 60 cell line five dose, Melanoma
[14] = molar, read-out: LC50 (the source's name)

Structure (SMILES): C=C1C(=O)O[C@H]2[C@H]1CC/C(COC(=O)NCCCCCCCCNC(=O)OC/C1=C/CC[C@@]3(C)O[C@H]3[C@H]3OC(=O)C(=C)[C@@H]3CC1)=C\CC[C@@]1(C)O[C@@H]21 [JVM 3-62, bis(((1aR,7aS, 10aS, 10bS, E)-1a-Methyl-8-methylene-9-oxo-1a,2,3,6,7,7a,8,9,10a,10b-decahydrooxireno[2′,3′:9,10]cyclodeca[1,2-b]furan-5-yl)methyl)octane-1,8-diyldicarbamate]
- Percent Growth ([1]; Log10 Concentration −4.0): −59%
- Percent Growth ([1]; Log10 Concentration −5.0): −66%
- Percent Growth ([1]; Log10 Concentration −6.0): 50%
- Percent Growth ([1]; Log10 Concentration −7.0): 104%
- Percent Growth ([1]; Log10 Concentration −8.0): 101%
- GI50 ([1]; molar): 999 nM
- TGI ([1]; molar): 2.69E−6
- CC50 ([1]; read-out: LC50, molar): 7240 nM
- Percent Growth ([2]; Log10 Concentration −4.0): −89%
- Percent Growth ([2]; Log10 Concentration −5.0): −92%
- Percent Growth ([2]; Log10 Concentration −6.0): 34%
- Percent Growth ([2]; Log10 Concentration −7.0): 91%
- Percent Growth ([2]; Log10 Concentration −8.0): 90%
- GI50 ([2]; molar): 521 nM
- CC50 ([2]; read-out: LC50, molar): 4630 nM
- Percent Growth ([3]; Log10 Concentration −4.0): −86%
- Percent Growth ([3]; Log10 Concentration −5.0): −92%
- Percent Growth ([3]; Log10 Concentration −6.0): −62%
- Percent Growth ([3]; Log10 Concentration −7.0): 97%
- Percent Growth ([3]; Log10 Concentration −8.0): 98%
- GI50 ([3]; molar): 195 nM
- TGI ([3]; molar): 4.07E−7
- CC50 ([3]; read-out: LC50, molar): 837 nM
- Percent Growth ([4]; Log10 Concentration −4.0): −80%
- Percent Growth ([4]; Log10 Concentration −5.0): −64%
- Percent Growth ([4]; Log10 Concentration −6.0): 76%
- Percent Growth ([4]; Log10 Concentration −7.0): 103%
- Percent Growth ([4]; Log10 Concentration −8.0): 103%
- GI50 ([4]; molar): 1530 nM
- TGI ([4]; molar): 3.49E−6
- CC50 [4, 14]: 7950 nM
- Percent Growth ([5]; Log10 Concentration −4.0): −83%
- Percent Growth ([5]; Log10 Concentration −5.0): −91%
- Percent Growth ([5]; Log10 Concentration −6.0): −27%
- Percent Growth ([5]; Log10 Concentration −7.0): 95%
- Percent Growth ([5]; Log10 Concentration −8.0): 89%
- GI50 ([5]; molar): 235 nM
- TGI ([5]; molar): 5.99E−7
- CC50 ([5]; read-out: LC50, molar): 2260 nM
- Percent Growth ([6]; Log10 Concentration −4.0): −80%
- Percent Growth ([6]; Log10 Concentration −5.0): −78%
- Percent Growth ([6]; Log10 Concentration −6.0): −47%
- Percent Growth ([6]; Log10 Concentration −7.0): 92%
- Percent Growth ([6]; Log10 Concentration −8.0): 99%
- GI50 ([6]; molar): 200 nM
- TGI ([6]; molar): 4.58E−7
- CC50 ([6]; read-out: LC50, molar): 1240 nM
- Percent Growth ([7]; Log10 Concentration −4.0): −57%
- Percent Growth ([7]; Log10 Concentration −5.0): −46%
- Percent Growth ([7]; Log10 Concentration −6.0): 83%
- Percent Growth ([7]; Log10 Concentration −7.0): 89%
- Percent Growth ([7]; Log10 Concentration −8.0): 93%
- GI50 ([7]; molar): 1810 nM
- TGI ([7]; molar): 4.39E−6
- CC50 [8]: 1000 nM
- Percent Growth ([9]; Log10 Concentration −4.0): −98%
- Percent Growth ([9]; Log10 Concentration −5.0): −99%
- Percent Growth ([9]; Log10 Concentration −6.0): 62%
- Percent Growth ([9]; Log10 Concentration −7.0): 90%
- Percent Growth ([9]; Log10 Concentration −8.0): 91%
- GI50 ([9]; molar): 1190 nM
- TGI ([9]; molar): 2.44E−6
- CC50 [9, 14]: 4990 nM
- Percent Growth ([10]; Log10 Concentration −4.0): −100%
- Percent Growth ([10]; Log10 Concentration −5.0): −99%
- Percent Growth ([10]; Log10 Concentration −6.0): 56%
- Percent Growth ([10]; Log10 Concentration −7.0): 105%
- Percent Growth ([10]; Log10 Concentration −8.0): 103%
- GI50 ([10]; molar): 1100 nM
- TGI ([10]; molar): 2.30E−6
- CC50 ([10]; read-out: LC50, molar): 4810 nM
- Percent Growth ([11]; Log10 Concentration −4.0): −59%
- Percent Growth ([11]; Log10 Concentration −5.0): −65%
- Percent Growth ([11]; Log10 Concentration −6.0): −7%
- Percent Growth ([11]; Log10 Concentration −7.0): 91%
- Percent Growth ([11]; Log10 Concentration −8.0): 100%
- GI50 ([11]; molar): 264 nM
- CC50 ([11]; read-out: LC50, molar): 5490 nM
- Percent Growth ([12]; Log10 Concentration −4.0): −57%
- Percent Growth ([12]; Log10 Concentration −5.0): 21%
- Percent Growth ([12]; Log10 Concentration −6.0): 92%
- Percent Growth ([12]; Log10 Concentration −7.0): 111%
- Percent Growth ([12]; Log10 Concentration −8.0): 103%
- GI50 ([12]; molar): 3910 nM
- TGI ([12]; molar): 1.87E−5
- CC50 ([12]; read-out: LC50, molar): 82000 nM
- Percent Growth ([13]; Log10 Concentration −4.0): −87%
- Percent Growth ([13]; Log10 Concentration −5.0): −89%
- Percent Growth ([13]; Log10 Concentration −6.0): 63%
- Percent Growth ([13]; Log10 Concentration −7.0): 95%
- Percent Growth ([13]; Log10 Concentration −8.0): 99%
- GI50 ([13]; molar): 1210 nM
- TGI ([13]; molar): 2.59E−6
- CC50 ([13]; read-out: LC50, SK-MEL-6, molar): 5530 nM
